Our source for the IC50 values is patent US10722501B2 (BAYER AKTIENGESELLSCHAFT, priority 2016, dated 2020).

For the test, the target named is T1, recombinant full-length human prolyl endopeptidase (PREP) (Homo sapiens, UniProt P48147).
T1 construct: To recombinant full-length human prolyl endopeptidase (PREP, R&D-Systems, 4308-SE); purchased R&D-Systems 4308-SE
T1 sequence (P48147 1-710): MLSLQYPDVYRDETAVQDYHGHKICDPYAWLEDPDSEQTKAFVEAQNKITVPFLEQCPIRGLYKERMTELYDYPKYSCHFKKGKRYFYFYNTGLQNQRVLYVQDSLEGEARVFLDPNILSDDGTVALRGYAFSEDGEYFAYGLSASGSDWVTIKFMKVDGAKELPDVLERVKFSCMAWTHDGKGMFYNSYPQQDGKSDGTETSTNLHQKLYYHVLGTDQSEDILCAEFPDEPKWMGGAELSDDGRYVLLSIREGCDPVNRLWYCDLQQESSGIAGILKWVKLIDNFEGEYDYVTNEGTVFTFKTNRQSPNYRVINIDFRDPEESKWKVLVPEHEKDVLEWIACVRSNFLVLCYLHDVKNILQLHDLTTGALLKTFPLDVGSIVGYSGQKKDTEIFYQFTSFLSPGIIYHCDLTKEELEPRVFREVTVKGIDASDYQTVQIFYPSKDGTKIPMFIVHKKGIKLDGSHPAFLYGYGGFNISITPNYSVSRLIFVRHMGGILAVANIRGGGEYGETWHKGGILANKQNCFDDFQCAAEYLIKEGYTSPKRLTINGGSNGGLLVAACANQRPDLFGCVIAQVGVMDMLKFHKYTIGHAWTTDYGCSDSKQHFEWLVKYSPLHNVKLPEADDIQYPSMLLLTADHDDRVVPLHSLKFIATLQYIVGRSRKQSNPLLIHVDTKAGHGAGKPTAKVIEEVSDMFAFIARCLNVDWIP
The experiment in a line: Biochemical human prolyl endopeptidase (PREP) assay with fluorescently labelled substrate. Particulars: substrate Z-Gly-Pro-AMC 50 μM, 32° C., 60 min; some as mean values from multiple independent determinations. A digest of the protocol:
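0.4 nM (final, example) recombinant PREP in pH 7.5 Tris buffer with EDTA, GSH, BSA and Brij-35; compounds at 1 nM to 30 μM. Reaction started with 50 μM Z-Gly-Pro-AMC and followed by fluorescence (ex 360/em 465 nm) at 32° C for 60 min. IC50 interpolated from percent activity based on initial slopes.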
The term IC50 denotes the midpoint of a concentration-inhibition curve. Consider `O=C([C@@H]1CCCc2nn(Cc3ccc(F)cc3Cl)c(=O)n21)N1CCC(F)(F)C1` [Example 477, (5S)-2-(2-Chloro-4-fluorobenzyl)-5-[(3,3-difluoropyrrolidin-1-yl)carbonyl]-5,6,7,8-tetrahydro[1,2,4]triazolo[4,3-a]pyridin-3(2H)-one], for which the IC50 was 0.21 nM.

For the compound `O=C([C@@H]1CCCc2nn(Cc3ccnc(C(F)(F)F)c3F)c(=O)n21)N1CC[C@@H](F)C1` [Example 478, (5S)-5-{[(3R)-3-Fluoropyrrolidin-1-yl]carbonyl}-2-{[3-fluoro-2-(trifluoromethyl)pyridin-4-yl]methyl}-5,6,7,8-tetrahydro[1,2,4]triazolo[4,3-a]pyridin-3(2H)-one], the IC50 was found to be 2.65 nM.

`O=C([C@@H]1CCCc2nn(Cc3ccnc(C(F)(F)F)c3F)c(=O)n21)N1CC[C@H](O)C1` [Example 479, (5S)-2-{[3-Fluoro-2-(trifluoromethyl)pyridin-4-yl]methyl}-5-{[(3S)-3-hydroxypyrrolidin-1-yl]carbonyl}-5,6,7,8-tetrahydro[1,2,4]triazolo[4,3-a]pyridin-3(2H)-one]: the IC50 was 25 nM. The value for `O=C([C@@H]1CCCc2nn(Cc3ccnc(C(F)(F)F)c3F)c(=O)n21)N1C[C@@H](F)[C@@H](F)C1` [Example 480, (5S)-5-{[(3R,4S)-3,4-Difluoropyrrolidin-1-yl]carbonyl}-2-{[3-fluoro-2-(trifluoromethyl)pyridin-4-yl]methyl}-5,6,7,8-tetrahydro[1,2,4]triazolo[4,3-a]pyridin-3(2H)-one] was 0.52 nM; that for `O=C([C@@H]1CCCc2nn(Cc3ccnc(C(F)(F)F)c3F)c(=O)n21)N1CC(O)C1` [Example 481, (5S)-2-{[3-Fluoro-2-(trifluoromethyl)pyridin-4-yl]methyl}-5-[(3-hydroxyazetidin-1-yl)carbonyl]-5,6,7,8-tetrahydro[1,2,4]triazolo[4,3-a]pyridin-3(2H)-one] was 27.5 nM. As for `O=C([C@@H]1CCCc2nn(Cc3ccnc(C(F)(F)F)c3F)c(=O)n21)N1CCC(F)(F)C1` [Example 482, (5S)-5-[(3,3-Difluoropyrrolidin-1-yl)carbonyl]-2-{[3-fluoro-2-(trifluoromethyl)pyridin-4-yl]methyl}-5,6,7,8-tetrahydro[1,2,4]triazolo[4,3-a]pyridin-3(2H)-one], the figure is 2.8 nM; as for `O=C([C@@H]1CCCc2nn(Cc3ccnc(C(F)(F)F)c3F)c(=O)n21)N1CC(F)C1` [Example 483, (5S)-5-[(3-Fluoroazetidin-1-yl)carbonyl]-2-{[3-fluoro-2-(trifluoromethyl)pyridin-4-yl]methyl}-5,6,7,8-tetrahydro[1,2,4]triazolo[4,3-a]pyridin-3(2H)-one], 2.1 nM. As for `O=C([C@@H]1CCCc2nn(Cc3ccnc(C(F)(F)F)c3F)c(=O)n21)N1CC[C@H](F)C1` [Example 484, (5S)-5-{[(3S)-3-Fluoropyrrolidin-1-yl]carbonyl}-2-{[3-fluoro-2-(trifluoromethyl)pyridin-4-yl]methyl}-5,6,7,8-tetrahydro[1,2,4]triazolo[4,3-a]pyridin-3(2H)-one], the figure is 0.295 nM.

`O=C([C@@H]1CCCc2nn(Cc3ccnc(C(F)(F)F)c3F)c(=O)n21)N1CCSC1` [Example 485, (5S)-2-{[3-Fluoro-2-(trifluoromethyl)pyridin-4-yl]methyl}-5-(1,3-thiazolidin-3-ylcarbonyl)-5,6,7,8-tetrahydro[1,2,4]triazolo[4,3-a]pyridin-3(2H)-one]: the IC50 was 4.3 nM. The value for `O=C([C@@H]1CCCc2nn(Cc3ccc(F)cc3F)c(=O)n21)N1CC(F)C1` [Example 486, (5S)-2-(2,4-Difluorobenzyl)-5-[(3-fluoroazetidin-1-yl)carbonyl]-5,6,7,8-tetrahydro[1,2,4]triazolo[4,3-a]pyridin-3(2H)-one] was 0.465 nM; that for `O=C([C@@H]1CCCc2nn(Cc3ccc(F)cc3F)c(=O)n21)N1CCC(F)(F)C1` [Example 487, (5S)-2-(2,4-Difluorobenzyl)-5-[(3,3-difluoropyrrolidin-1-yl)carbonyl]-5,6,7,8-tetrahydro[1,2,4]triazolo[4,3-a]pyridin-3(2H)-one] was 0.725 nM. As for `O=C([C@@H]1CCCc2nn(Cc3ccc(F)cc3F)c(=O)n21)N1CC[C@H](F)C1` [Example 488, (5S)-2-(2,4-Difluorobenzyl)-5-{[(3S)-3-fluoropyrrolidin-1-yl]carbonyl}-5,6,7,8-tetrahydro[1,2,4]triazolo[4,3-a]pyridin-3(2H)-one], the figure is 0.15 nM; as for `O=C([C@@H]1CCCc2nn(Cc3ccc(F)cc3F)c(=O)n21)N1C[C@@H](F)[C@@H](F)C1` [Example 489, (5S)-2-(2,4-Difluorobenzyl)-5-{[(3R,4S)-3,4-difluoropyrrolidin-1-yl]carbonyl}-5,6,7,8-tetrahydro[1,2,4]triazolo[4,3-a]pyridin-3(2H)-one], 0.11 nM; as for `O=C([C@@H]1CCCc2nn(Cc3cc(F)c(F)cc3F)c(=O)n21)N1CCC(F)(F)C1` [Example 490, (5S)-5-[(3,3-Difluoropyrrolidin-1-yl)carbonyl]-2-(2,4,5-trifluorobenzyl)-5,6,7,8-tetrahydro[1,2,4]triazolo[4,3-a]pyridin-3(2H)-one], 0.38 nM. The value for `O=C([C@@H]1CCCc2nn(Cc3cc(F)c(F)cc3F)c(=O)n21)N1CC(F)C1` [Example 491, (5S)-5-[(3-Fluoroazetidin-1-yl)carbonyl]-2-(2,4,5-trifluorobenzyl)-5,6,7,8-tetrahydro[1,2,4]triazolo[4,3-a]pyridin-3(2H)-one] was 0.44 nM; that for `O=C([C@@H]1CCCc2nn(Cc3cc(F)c(F)cc3F)c(=O)n21)N1C[C@@H](F)[C@@H](F)C1` [Example 492, (5S)-5-{[(3R,4S)-3,4-Difluoropyrrolidin-1-yl]carbonyl}-2-(2,4,5-trifluorobenzyl)-5,6,7,8-tetrahydro[1,2,4]triazolo[4,3-a]pyridin-3(2H)-one] was 0.52 nM. Regarding `O=C([C@@H]1CCCc2nn(Cc3cc(F)c(F)cc3F)c(=O)n21)N1CC[C@H](F)C1` [Example 493, (5S)-5-{[(3S)-3-Fluoropyrrolidin-1-yl]carbonyl}-2-(2,4,5-trifluorobenzyl)-5,6,7,8-tetrahydro[1,2,4]triazolo[4,3-a]pyridin-3(2H)-one], the IC50 was found to be 0.32 nM. For `O=C([C@@H]1CCCc2nn(Cc3cc(C(F)(F)F)nc4ccccc34)c(=O)n21)N1CC(F)C1` [Example 494, (5S)-5-[(3-Fluoroazetidin-1-yl)carbonyl]-2-{[2-(trifluoromethyl)quinolin-4-yl]methyl}-5,6,7,8-tetrahydro[1,2,4]triazolo[4,3-a]pyridin-3(2H)-one], the IC50 was found to be 0.91 nM. The value for `O=C([C@@H]1CCCc2nn(Cc3cc(C(F)(F)F)nc4ccccc34)c(=O)n21)N1CC(O)C1` [Example 495, (5S)-5-[(3-Hydroxyazetidin-1-yl)carbonyl]-2-{[2-(trifluoromethyl)quinolin-4-yl]methyl}-5,6,7,8-tetrahydro[1,2,4]triazolo[4,3-a]pyridin-3(2H)-one] was 16.5 nM; that for `O=C([C@@H]1CCCc2nn(Cc3cc(C(F)(F)F)nc4ccccc34)c(=O)n21)N1CC[C@H](O)C1` [Example 496, (5S)-5-{[(3S)-3-Hydroxypyrrolidin-1-yl]carbonyl}-2-{[2-(trifluoromethyl)quinolin-4-yl]methyl}-5,6,7,8-tetrahydro[1,2,4]triazolo[4,3-a]pyridin-3(2H)-one] was 18 nM. As for `O=C([C@@H]1CCCc2nn(Cc3cc(C(F)(F)F)nc4ccccc34)c(=O)n21)N1C[C@@H](F)[C@@H](F)C1` [Example 497, (5S)-5-{[(3R,4S)-3,4-Difluoropyrrolidin-1-yl]carbonyl}-2-{[2-(trifluoromethyl)quinolin-4-yl]methyl}-5,6,7,8-tetrahydro[1,2,4]triazolo[4,3-a]pyridin-3(2H)-one], the figure is 0.18 nM. As for `O=C([C@@H]1CCCc2nn(Cc3cc(C(F)(F)F)nc4ccc(F)cc34)c(=O)n21)N1CCCC1` [Example 498, (5S)-2-{[6-Fluoro-2-(trifluoromethyl)quinolin-4-yl]methyl}-5-(pyrrolidin-1-ylcarbonyl)-5,6,7,8-tetrahydro[1,2,4]triazolo[4,3-a]pyridin-3(2H)-one], the figure is 0.44 nM. With `O=C([C@@H]1CCCc2nn(Cc3nc(C(F)(F)F)no3)c(=O)n21)N1CC(F)(F)C1` [Example 499, (5S)-5-[(3,3-Difluoroazetidin-1-yl)carbonyl]-2-{[3-(trifluoromethyl)-1,2,4-oxadiazol-5-yl]methyl}-5,6,7,8-tetrahydro[1,2,4]triazolo[4,3-a]pyridin-3(2H)-one], the IC50 amounted to 110 nM.
